Laboratory results taken from patent US5118678A, “Carbamates of rapamycin” (American Home Products Corporation, priority 1991, dated 1992).
Where two headings read alike, the source gives them in different places.

Legend:
[1] = test system: cells from the thymus of normal BALB/c mice (lymphocyte proliferation); assay: comitogen-induced thymocyte proliferation procedure (LAF); type: cell-based; details: Mus musculus; for IC50: read-out: LAF IC50
Procedure: (§1) Immunosuppressive activity was evaluated in an in vitro standard pharmacological test procedure to measure lymphocyte proliferation (LAF) and in two in vivo standard pharmacological test procedures. The first in vivo procedure was a popliteal lymph node (PLN) test procedure which measured the effect of compounds of this invention on a mixed lymphocyte reaction and the second in vivo procedure evaluated the survival time of a pinch skin graft.
Briefly, cells from the thymus of normal BALB/c mice are cultured for 72 hours with PHA and IL-1 and pulsed with tritiated thymidine during the last six hours. […] Cells are harvested and incorporated radioactivity is determined. Inhibition of lymphoproliferation is assessed as percent change in counts per minute from non-drug treated controls. The results are expressed as an IC50. [formula]

[2] = test system: popliteal lymph node, mixed lymphocyte reaction; assay: popliteal lymph node (PLN) test procedure (in vivo mixed lymphocyte reaction); set-up: species or system C3H mice (recipients), BALB/c donors; details: for PLN (ratio): p.o. daily Day 0 to Day 4, rapamycin = 1.00
Procedure: as §1
A mixed lymphocyte reaction (MLR) occurs when lymphoid cells from genetically distinct animals are combined in tissue culture. Each stimulates the other to undergo blast transformation which results in increased DNA synthesis that can be quantified by the incorporation of tritiated thymidine. Since stimulating a MLR is a function of disparity at Major Histocompatibility antigens, an in vivo popliteal lymph node (PLN) test procedure closely correlates to host vs. graft disease. Briefly, irradiated spleen cells from BALB/c donors are injected into the right hind foot pad of recipient C3H mice. The drug is given daily, p.o. from Day 0 to Day 4. On Day 3 and Day 4, tritiated thymidine is given i.p., b.i.d. On Day 5, the hind popliteal lymph nodes are removed and dissolved, and radioactivity counted. The corresponding left PLN serves as the control for the PLN from the injected hind foot. Percent suppression is calculated using the non-drug treated animals as allogenic control. […] Results are expressed by the following ratio: [formula]

[3] = test system: pinch skin graft from male DBA/2 donors transplanted to male BALB/c recipients; assay: survival time of pinch skin graft; type: in vivo, DBA/2 donors (mice); details: intraperitoneally; mean ± S.D.; untreated grafts typically rejected within 6-7 days
Procedure: as §1
The second in vivo test procedure is designed to determine the survival time of pinch skin graft from male DBA/2 donors transplanted to male BALB/c recipients. The method is adapted from Billingham R. E. and Medawar P. B., J. Exp. Biol. 28:385-402, (1951). Briefly, a pinch skin graft from the donor is grafted on the dorsum of the recipient as a homograft, and an autograft is used as control in the same region. […] Untreated recipients serve as rejection control. The graft is monitored daily and observations are recorded until the graft becomes dry and forms a blackened scab. This is considered as the rejection day. The mean graft survival time (number of days ±S.D.) of the drug treatment group is compared with the control group.

[4] = FASEB 1989; Lancet 1978; cited from earlier work
[5] = test system: experimental allergic encephalomyelitis model, a model for multiple sclerosis; details: R. Martel et al. 1977; cited from earlier work
IgE-like antibodies = details: R. Martel et al. 1977; cited from earlier work
[6] = thymocytes cultured 72 h with PHA and IL-1, tritiated thymidine incorporation, vs non-drug treated controls

CO[C@H]1C[C@@H]2CC[C@@H](C)[C@@](O)(O2)C(=O)C(=O)N2CCCC[C@H]2C(=O)O[C@H]([C@H](C)C[C@@H]2CC[C@@H](OC(=O)Nc3ccc(F)cc3)[C@H](OC)C2)CC(=O)[C@H](C)/C=C(\C)[C@@H](O)[C@@H](OC)C(=O)[C@H](C)C[C@H](C)/C=C/C=C/C=C/1C [Example 1, Rapamycin 42-ester with (4-fluorophenyl)carbamic acid]
IC50 [1, 6]: 8.6 nM | PLN (ratio) [2]: 0.71 ratio | Skin Graft (mean graft survival time, days + SD) [3]: 8.5 ± 1.6 days

CO[C@H]1C[C@@H]2CC[C@@H](C)[C@@](O)(O2)C(=O)C(=O)N2CCCC[C@H]2C(=O)O[C@H]([C@H](C)C[C@@H]2CC[C@@H](OC(=O)Nc3ccccc3)[C@H](OC)C2)CC(=O)[C@H](C)/C=C(\C)[C@@H](O)[C@@H](OC)C(=O)[C@H](C)C[C@H](C)/C=C/C=C/C=C/1C [Example 2, Rapamycin 42-ester with phenylcarbamic acid]
IC50 [1, 6]: 3.9 nM | PLN (ratio) [2]: 0.47 ratio | Skin Graft (mean graft survival time, days + SD) [3]: 8.5 ± 1.2 days

CO[C@H]1C[C@@H]2CC[C@@H](C)[C@@](O)(O2)C(=O)C(=O)N2CCCC[C@H]2C(=O)O[C@H]([C@H](C)C[C@@H]2CC[C@@H](OC(=O)Nc3ccc(C(F)(F)F)cc3)[C@H](OC)C2)CC(=O)[C@H](C)/C=C(\C)[C@@H](OC(=O)Nc2ccc(C(F)(F)F)cc2)[C@@H](OC)C(=O)[C@H](C)C[C@H](C)/C=C/C=C/C=C/1C [Example 3, Rapamycin-31,42-diester with [4-(trifluoromethyl)phenyl]carbamic acid]
IC50 [1, 6]: > 1000 nM

CO[C@H]1C[C@@H]2CC[C@@H](C)[C@@](O)(O2)C(=O)C(=O)N2CCCC[C@H]2C(=O)O[C@H]([C@H](C)C[C@@H]2CC[C@@H](OC(=O)Nc3ccc(C(F)(F)F)cc3)[C@H](OC)C2)CC(=O)[C@H](C)/C=C(\C)[C@@H](O)[C@@H](OC)C(=O)[C@H](C)C[C@H](C)/C=C/C=C/C=C/1C [Example 4, Rapamycin-42-ester with [4-(trifluoromethyl)phenyl]carbamic acid]
IC50 [1, 6]: 57.9 nM | PLN (ratio) [2]: 0.90 ratio

CO[C@H]1C[C@@H]2CC[C@@H](C)[C@@](O)(O2)C(=O)C(=O)N2CCCC[C@H]2C(=O)O[C@H]([C@H](C)C[C@@H]2CC[C@@H](OC(=O)Nc3ccc([N+](=O)[O-])cc3)[C@H](OC)C2)CC(=O)[C@H](C)/C=C(\C)[C@@H](OC(=O)Nc2ccc([N+](=O)[O-])cc2)[C@@H](OC)C(=O)[C@H](C)C[C@H](C)/C=C/C=C/C=C/1C [Example 5, Rapamycin-31,42-diester with (4-nitrophenyl)carbamic acid]
inhibition at 0.1 µM ([1]; read-out: LAF percent inhibition): 3%

CO[C@H]1C[C@@H]2CC[C@@H](C)[C@@](O)(O2)C(=O)C(=O)N2CCCC[C@H]2C(=O)O[C@H]([C@H](C)C[C@@H]2CC[C@@H](OC(=O)Nc3ccc([N+](=O)[O-])cc3)[C@H](OC)C2)CC(=O)[C@H](C)/C=C(\C)[C@@H](O)[C@@H](OC)C(=O)[C@H](C)C[C@H](C)/C=C/C=C/C=C/1C [Example 6, Rapamycin-42-ester with (4-nitrophenyl)carbamic acid]
IC50 [1, 6]: 10.4 nM | PLN (ratio) [2]: 0.25 ratio | Skin Graft (mean graft survival time, days + SD) [3]: 8.3 ± 1.0 days

CO[C@H]1C[C@@H]2CC[C@@H](C)[C@@](O)(O2)C(=O)C(=O)N2CCCC[C@H]2C(=O)O[C@H]([C@H](C)C[C@@H]2CC[C@@H](OC(=O)Nc3ccc(C)cc3)[C@H](OC)C2)CC(=O)[C@H](C)/C=C(\C)[C@@H](O)[C@@H](OC)C(=O)[C@H](C)C[C@H](C)/C=C/C=C/C=C/1C [Example 8, Rapamycin-42-ester with (4-methylphenyl)carbamic acid]
IC50 [1, 6]: 7.4 nM | Skin Graft (mean graft survival time, days + SD) [3]: 8.8 ± 1.3 days

CO[C@H]1C[C@@H]2CC[C@@H](C)[C@@](O)(O2)C(=O)C(=O)N2CCCC[C@H]2C(=O)O[C@H]([C@H](C)C[C@@H]2CC[C@@H](OC(=O)Nc3ccc(F)cc3F)[C@H](OC)C2)CC(=O)[C@H](C)/C=C(\C)[C@@H](O)[C@@H](OC)C(=O)[C@H](C)C[C@H](C)/C=C/C=C/C=C/1C [Example 9, Rapamycin-42-ester with (2,4-difluorophenyl)carbamic acid]
IC50 [1, 6]: 8.7 nM | PLN (ratio) [2]: 0.72 ratio | Skin Graft (mean graft survival time, days + SD) [3]: 8.0 ± 1.7 days

CO[C@H]1C[C@@H]2CC[C@@H](C)[C@@](O)(O2)C(=O)C(=O)N2CCCC[C@H]2C(=O)O[C@H]([C@H](C)C[C@@H]2CC[C@@H](OC(=O)Nc3ccc(F)cc3F)[C@H](OC)C2)CC(=O)[C@H](C)/C=C(\C)[C@@H](OC(=O)Nc2ccc(F)cc2F)[C@@H](OC)C(=O)[C@H](C)C[C@H](C)/C=C/C=C/C=C/1C [Example 10, Rapamycin-31,42-diester with (2,4-difluorophenyl)carbamic acid]
IC50 [1, 6]: > 1000 nM

CO[C@H]1C[C@@H]2CC[C@@H](C)[C@@](O)(O2)C(=O)C(=O)N2CCCC[C@H]2C(=O)O[C@H]([C@H](C)C[C@@H]2CC[C@@H](OC(=O)Nc3ccccc3)[C@H](OC)C2)CC(=O)[C@H](C)/C=C(\C)[C@@H](OC(=O)Nc2ccccc2)[C@@H](OC)C(=O)[C@H](C)C[C@H](C)/C=C/C=C/C=C/1C [Example 11, Rapamycin-31,42-diester with phenylcarbamic acid]
IC50 [1, 6]: > 1000 nM

CO[C@H]1C[C@@H]2CC[C@@H](C)[C@@](O)(O2)C(=O)C(=O)N2CCCC[C@H]2C(=O)O[C@H]([C@H](C)C[C@@H]2CC[C@@H](OC(=O)Nc3ccc(F)cc3)[C@H](OC)C2)CC(=O)[C@H](C)/C=C(\C)[C@@H](OC(=O)Nc2ccc(F)cc2)[C@@H](OC)C(=O)[C@H](C)C[C@H](C)/C=C/C=C/C=C/1C [Example 12, Rapamycin-31,42-diester with (4-fluorophenyl)carbamic acid]
IC50 [1, 6]: > 1000 nM

CO[C@H]1C[C@@H]2CC[C@@H](C)[C@@](O)(O2)C(=O)C(=O)N2CCCC[C@H]2C(=O)O[C@H]([C@H](C)C[C@@H]2CC[C@@H](O[Si](C)(C)C(C)(C)C)[C@H](OC)C2)CC(=O)[C@H](C)/C=C(\C)[C@@H](OC(=O)Nc2ccc(F)cc2F)[C@@H](OC)C(=O)[C@H](C)C[C@H](C)/C=C/C=C/C=C/1C [Example 14, Rapamycin-42-tert-butyldimethylsilyl ether-31-ester with (2,4-difluorophenyl)carbamic acid]
IC50 ([1]; 72 h): > 1000 nM

CO[C@H]1C[C@@H]2CC[C@@H](C)[C@@](O)(O2)C(=O)C(=O)N2CCCC[C@H]2C(=O)O[C@H]([C@H](C)C[C@@H]2CC[C@@H](O)[C@H](OC)C2)CC(=O)[C@H](C)/C=C(\C)[C@@H](OC(=O)Nc2ccc(F)cc2F)[C@@H](OC)C(=O)[C@H](C)C[C@H](C)/C=C/C=C/C=C/1C [Example 15, Rapamycin-31-ester with (2,4-difluorophenyl)carbamic acid]
IC50 [1, 6]: > 1000 nM

C=CC[C@@H]1/C=C(\C)C[C@H](C)C[C@H](OC)[C@H]2O[C@@](O)(C(=O)C(=O)N3CCCC[C@H]3C(=O)O[C@H](/C(C)=C/[C@@H]3CC[C@@H](O)[C@H](OC)C3)[C@H](C)[C@@H](O)CC1=O)[C@H](C)C[C@@H]2OC [FK-506]
immunosuppressive effects [4]: effective as immunosuppressive agents

CO[C@H]1C[C@@H]2CC[C@@H](C)[C@@](O)(O2)C(=O)C(=O)N2CCCC[C@H]2C(=O)O[C@H]([C@H](C)C[C@@H]2CC[C@@H](O)[C@H](OC)C2)CC(=O)[C@H](C)/C=C(\C)[C@@H](O)[C@@H](OC)C(=O)[C@H](C)C[C@H](C)/C=C/C=C/C=C/1C [Rapamycin]
IC50 ([1]; 72 h): 3.2 to 9.4 nM | percent suppression (PLN) ([2]; 6 mg/kg, p.o., vs non-drug treated animals as allogenic control): 86% | PLN (ratio) [2]: 1.00 ratio | Skin Graft (mean graft survival time, days + SD) [3]: 12.0 ± 1.7 days | effect in experimental allergic encephalomyelitis model [5]: effective in the experimental allergic encephalomyelitis model | inhibition of formation of IgE-like antibodies (IgE-like antibodies): effectively inhibited the formation of IgE-like antibodies | immunosuppressive effects [4]: immunosuppressive effects
